Converted amounts (≈) assume the structure as drawn.
Key:
[1] = system: K562 human leukemia-derived cell lines; experiment: K562 human leukemia cell-proliferation inhibition test; format: cell-based; settings: Homo sapiens, K562, 72 h, K562 cells, 72 hours, viable cells counted with trypan blue; read-out: IC50
Method: K562 Human Leukemia Cell-Proliferation Inhibition Test
A cell proliferation inhibition test using K562 cells was performed. The activity in the presence of a test substance was compared to the activity in the presence of green tea polyphenol (GTP). The materials used in the test are as follows.
Cells: K562 human leukemia-derived cell lines (DS Pharma Biomedical Co., Ltd.)
Control Substance: Green Tea Polyphenols, abbreviation: GTP (LKT Laboratories, Inc.)
Culture solution: 10% equine serum-supplemented RPMI1640 medium
A test substance and a control substance were used by dissolving each of them in DMSO. To a solution (0.99 mL) containing K562 cells in a cell concentration of 20,000 cells/mL, a test substance solution or a control substance solution (0.01 mL) was added and the cells were cultured. Seventy two hours later, a part of the cells was stained with trypan blue and viable cells were counted by a counting chamber.
In Table 2, “IC50” denotes the sample concentration inhibiting 50% of cell proliferation

MCF-7 (breast cancer) = experiment: Evaluation of anticancer action, cell proliferation inhibition (WST-8), MCF-7; format: cell-based; settings: Homo sapiens, MCF7, MCF-7, about 72 hours
Text: (§1) The cell proliferation inhibitory effects of a test substance (Compound 3) on various types of cancer cells were examined.
(§2) 1. Measuring Reagent and Analysis Software
(§3) WST-8 Kit (Cat. No. 260-96165 or 260-96162; manufactured by Kishida Chemical Co., Ltd.) for counting cell number
(§4) Software for graph making and measurement of GI50 value: XLfit 5.2 (ID Business Solutions Ltd.)
(§5) 2. Cells and Culture Conditions
(§6) Five types of cells and medium (the following Table) were used. The cells were obtained from the Research Resource Bank of the Human Sciences Foundation.
(§7) On the day when a sample was to be added, the sample was weighed and a medium for each type of cells was added so as to be 500 μg/mL. Sonication was performed while warming at 37° C. for 60 minutes to be dissolved. Then, filtration was performed by a 0.22 m-filter. The 500 μg/mL-solution was diluted with the medium for each type of cells to prepare 200 μg/mL, 60 μg/mL, 20 μg/mL, 6 μg/mL, 2 μg/mL, 0.6 μg/mL and 0.2 μg/mL solutions, which were specified as two-fold concentration test solutions (the final concentrations of the test substance were 250 µg/mL, 100 μg/mL, 30 μg/mL, 10 μg/mL, 3 μg/mL, 1 μg/mL, 0.3 μg/mL, […], respectively). […]
(§8) (8) Absorbance values at 450 nm and 650 nm were measured to calculate O.D. 450 and O.D. 650. […]
(§9) ODdrug-exposed wells: absorbance of a well containing a sample […]

Topoisomerase II = biological target: T1, Topoisomerase II (Homo sapiens, UniProt P11388); experiment: Topoisomerase II assay; format: biochemical; design: key to Inhibitory activity Topoisomerase II: ∘: Inhibitory activity is present; Δ: Weak inhibitory activity is present; x: No inhibitory activity is present
T1 construct: purchased
Method: The inhibitory action of a test substance (Compound 3) on Topoisomerase I and Topoisomerase II was examined.
2. Topoisomerase II Assay
Assay was performed in accordance with the attachment to Topoisomerase II Assay Kit, as follows.
(1) 10×Topo II Incomplete Assay A and 10×ATP Buffer B were mixed in equal amounts to prepare 5× Complete Assay Buffer (prepared when used).
(2) Assay solution was prepared in accordance with the following table.
(3) Incubated at 37° C. for 30 minutes (4) 5 μl of 5× Stop Buffer/gel loading dye was added (5) 1 μl of 1.3 mg/mL protease K solution (prepared with distilled water) was added (final concentration of protease K is 50 μg/mL) (6) Incubated at 37° C. for 20 minute (7) Total amount was applied to 1% agarose gel (containing EtBr) and analyzed by electrophoresis using a single concentration TAE buffer (prepared with distilled water). (8) After electrophoresis, the 1% agarose gel was stained with 0.5 μg/mL EtBr solution (prepared with single concentration TAE buffer) (9) Irradiated with UV ray and photographed.

[2] = system: HL60 (myelocytic leukemia); experiment: Evaluation of anticancer action, cell proliferation inhibition (WST-8), HL60; format: cell-based; settings: Homo sapiens, HL-60, HL60, about 96 hours
Text: as §1, §2, §3, §4, §5, §6, §7, §8, §9

T1 sequence (P11388 whole entry): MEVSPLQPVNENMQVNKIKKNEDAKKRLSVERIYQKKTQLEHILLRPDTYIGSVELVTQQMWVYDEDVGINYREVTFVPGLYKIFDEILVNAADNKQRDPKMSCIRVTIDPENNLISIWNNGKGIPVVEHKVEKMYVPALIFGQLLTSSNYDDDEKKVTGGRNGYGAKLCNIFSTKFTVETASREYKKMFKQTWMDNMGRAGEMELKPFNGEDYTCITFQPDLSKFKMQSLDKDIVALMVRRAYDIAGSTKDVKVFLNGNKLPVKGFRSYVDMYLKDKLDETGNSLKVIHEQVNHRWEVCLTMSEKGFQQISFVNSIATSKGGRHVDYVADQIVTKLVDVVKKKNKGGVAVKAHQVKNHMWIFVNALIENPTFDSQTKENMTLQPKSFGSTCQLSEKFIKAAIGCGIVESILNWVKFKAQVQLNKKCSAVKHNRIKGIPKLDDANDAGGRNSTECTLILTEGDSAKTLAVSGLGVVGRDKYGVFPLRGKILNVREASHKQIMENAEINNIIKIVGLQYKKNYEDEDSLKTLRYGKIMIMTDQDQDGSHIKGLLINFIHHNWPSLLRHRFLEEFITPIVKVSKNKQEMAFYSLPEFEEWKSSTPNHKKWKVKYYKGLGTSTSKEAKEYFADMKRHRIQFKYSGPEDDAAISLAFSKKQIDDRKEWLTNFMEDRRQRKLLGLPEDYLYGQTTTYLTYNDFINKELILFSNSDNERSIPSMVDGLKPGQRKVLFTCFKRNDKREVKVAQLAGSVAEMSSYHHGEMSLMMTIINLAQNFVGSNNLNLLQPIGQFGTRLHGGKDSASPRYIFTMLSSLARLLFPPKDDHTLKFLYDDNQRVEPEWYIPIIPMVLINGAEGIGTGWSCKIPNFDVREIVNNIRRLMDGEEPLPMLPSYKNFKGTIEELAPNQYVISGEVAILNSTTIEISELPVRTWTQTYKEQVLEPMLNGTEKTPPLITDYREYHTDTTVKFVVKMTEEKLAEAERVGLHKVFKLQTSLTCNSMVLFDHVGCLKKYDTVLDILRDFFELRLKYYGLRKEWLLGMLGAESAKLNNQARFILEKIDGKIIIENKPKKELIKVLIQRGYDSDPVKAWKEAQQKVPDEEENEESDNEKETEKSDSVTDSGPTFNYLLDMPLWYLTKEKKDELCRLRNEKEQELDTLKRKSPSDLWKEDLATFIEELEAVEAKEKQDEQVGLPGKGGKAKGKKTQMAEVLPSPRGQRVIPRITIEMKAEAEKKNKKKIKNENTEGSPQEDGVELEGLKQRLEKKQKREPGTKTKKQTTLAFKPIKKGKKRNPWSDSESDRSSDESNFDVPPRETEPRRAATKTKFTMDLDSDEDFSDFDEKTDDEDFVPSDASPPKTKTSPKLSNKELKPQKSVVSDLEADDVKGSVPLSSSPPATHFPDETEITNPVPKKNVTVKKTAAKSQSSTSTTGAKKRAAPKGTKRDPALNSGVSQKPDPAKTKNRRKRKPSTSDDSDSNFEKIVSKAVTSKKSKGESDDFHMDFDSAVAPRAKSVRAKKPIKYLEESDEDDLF

SMILES | IC50 [1] [mg/L] | GI50 (MCF-7 (breast cancer)) [mg/L] | Topoisomerase II inhibitory activity (Topoisomerase II; 5, 50 and 500 μg/mL) | Inhibitory activity Topoisomerase II (Topoisomerase II; final concentration 0.5 μg/mL) | Inhibitory activity Topoisomerase II (Topoisomerase II; final concentration 5 μg/mL) | Inhibitory activity Topoisomerase II (Topoisomerase II; final concentration 50 μg/mL) | Inhibitory activity Topoisomerase II (Topoisomerase II; final concentration 500 μg/mL) | GI50 [2] [mg/L]
O=C(Nc1ccc(S(F)(F)(F)(F)F)cc1)c1cc(O)c(O)c(O)c1 [Compound 3, 4-(3,4,5-trihydroxybenzoylamino)pentafluorosulfanylbenzene] | 0.81 (≈ 2.18 µM) | 13.6 (≈ 36.6 µM) | inhibitory activity was observed | x | ∘ | ∘ | ∘ | 1.7 (≈ 4.58 µM)
O=C(Oc1ccc(S(F)(F)(F)(F)F)cc1)c1cc(O)c(O)c(O)c1 [Compound 7, 4-(3,4,5-trihydroxybenzoyloxy)pentafluorosulfanylbenzene] | 1.9 (≈ 5.1 µM) |  |  |  |  |  |  | 

From patent publication US9682931B2, “Aryloyl(oxy or amino)pentafluorosulfanylbenzene compound, pharmaceutically acceptable salt thereof, and prodrugs thereof” (UBE INDUSTRIES, LTD., priority 2013, dated 2017)
